Species: Rattus norvegicus
Test: Open TG-GATES - Regimen: Single
Format: toxicity, organism-based, Sprague-Dawley
Parameters: regimen Single, gender Male, age 6 weeks
Details: in vivo, ip, route intraperitoneal injection; for Bas / Eos / Ht / Lym / MCHC / MCV / Mono / Neu / PT / Plat / RBC / Ret / WBC / APTT / Fbg / Hb / MCH: tissue Blood; for KIDNEY_L / KIDNEY_R / KIDNEY_TOTAL: tissue Kidney; for LIVER: tissue Liver; for ALP / ALT / AST / BUN / CRE / DBIL / IP / K / LDH / PL / RALB / TBIL / TC / TG / TP / gamma-GTP / GLC / Ca / Na: tissue Plasma
[1] = 0 mg/kg, 3 h, dose 0 ug/Kg, dose level Control
[2] = 0 mg/kg, 6 h, dose 0 ug/Kg, dose level Control
[3] = 0 mg/kg, 9 h, dose 0 ug/Kg, dose level Control
[4] = 0 mg/kg, 24 h, dose 0 ug/Kg, dose level Control
[5] = 0.01 mg/kg, 3 h, dose 10 ug/Kg, dose level Low
[6] = 0.01 mg/kg, 6 h, dose 10 ug/Kg, dose level Low
[7] = 0.01 mg/kg, 9 h, dose 10 ug/Kg, dose level Low
[8] = 0.01 mg/kg, 24 h, dose 10 ug/Kg, dose level Low

LPS
TERMINAL_BW [1]: 194.6 g | Bas [1]: 0.3% | Eos [1]: 0.7% | Ht [1]: 40.7% | Lym [1]: 72% | MCHC [1]: 32.8% | MCV [1]: 63.3 fL | Mono [1]: 4% | Neu [1]: 21.3% | PT [1]: 15.7 s | Plat [1]: 123.5 x10_4/uL | RBC [1]: 644.3 x10_4/ul | Ret [1]: 9.4% | WBC [1]: 91.5 x10_2/uL | KIDNEY_L [1]: 0.9 g | KIDNEY_R [1]: 0.9 g | KIDNEY_TOTAL [1]: 1.8 g | LIVER [1]: 8.6 g | ALP [1]: 1094.7 IU/L | ALT [1]: 41.7 IU/L | AST [1]: 78.3 IU/L | BUN [1]: 8.7 mg/dL | CRE [1]: 0.2 mg/dL | DBIL [1]: 0.01 mg/dL | IP [1]: 9.2 mg/dL | K [1]: 4 meq/L | LDH [1]: 110 IU/L | PL [1]: 136.3 mg/dL | RALB [1]: 2.5 g/dL | TBIL [1]: 0.0467 mg/dL | TC [1]: 76 mg/dL | TG [1]: 41.3 mg/dL | TP [1]: 5.3 g/dL | gamma-GTP [1]: 1 IU/L | TERMINAL_BW [2]: 195.4 g | APTT [2]: 18.1 s | Bas [2]: 0% | Eos [2]: 0.3% | Fbg [2]: 298.7 mg/dL | Hb [2]: 12.9 g/dL | Ht [2]: 39.5% | Lym [2]: 71.3% | MCHC [2]: 32.6% | MCV [2]: 65.8 fL | Mono [2]: 2.3% | Neu [2]: 25% | PT [2]: 15.7 s | Plat [2]: 114.9 x10_4/uL | RBC [2]: 601.3 x10_4/ul | Ret [2]: 9.6% | WBC [2]: 101.7 x10_2/uL | KIDNEY_L [2]: 0.9 g | KIDNEY_R [2]: 0.9 g | KIDNEY_TOTAL [2]: 1.7 g | LIVER [2]: 7.9 g | ALP [2]: 1269.3 IU/L | ALT [2]: 37.7 IU/L | AST [2]: 75.7 IU/L | BUN [2]: 7.3 mg/dL | CRE [2]: 0.2 mg/dL | DBIL [2]: 0.01 mg/dL | GLC [2]: 178.3 mg/dL | IP [2]: 10 mg/dL | K [2]: 3.7 meq/L | LDH [2]: 74 IU/L | PL [2]: 138.7 mg/dL | RALB [2]: 2.5 g/dL | TBIL [2]: 0.0433 mg/dL | TC [2]: 79.3 mg/dL | TG [2]: 24.7 mg/dL | TP [2]: 5.4 g/dL | gamma-GTP [2]: 1 IU/L | TERMINAL_BW [3]: 191.3 g | APTT [3]: 17.1 s | Bas [3]: 0% | Eos [3]: 1% | Fbg [3]: 304.3 mg/dL | Ht [3]: 38.4% | Lym [3]: 63.3% | MCHC [3]: 32.8% | Mono [3]: 2% | Neu [3]: 33.7% | Plat [3]: 116.1 x10_4/uL | RBC [3]: 624 x10_4/ul | Ret [3]: 8.1% | WBC [3]: 71.4 x10_2/uL | KIDNEY_L [3]: 0.9 g | KIDNEY_R [3]: 0.9 g | KIDNEY_TOTAL [3]: 1.8 g | LIVER [3]: 7 g | ALP [3]: 1080.7 IU/L | ALT [3]: 48 IU/L | AST [3]: 79 IU/L | BUN [3]: 8.3 mg/dL | CRE [3]: 0.2 mg/dL | Ca [3]: 10 mg/dL | DBIL [3]: 0.0033 mg/dL | GLC [3]: 165 mg/dL | IP [3]: 9.5 mg/dL | K [3]: 3.8 meq/L | LDH [3]: 53.7 IU/L | PL [3]: 124.7 mg/dL | RALB [3]: 2.4 g/dL | TBIL [3]: 0.0467 mg/dL | TC [3]: 73.3 mg/dL | TG [3]: 13.3 mg/dL | TP [3]: 5.2 g/dL | gamma-GTP [3]: 1 IU/L | TERMINAL_BW [4]: 209.1 g | Bas [4]: 0.3% | Eos [4]: 1.3% | Fbg [4]: 302.3 mg/dL | Hb [4]: 12.9 g/dL | Ht [4]: 39.4% | Lym [4]: 76.3% | MCH [4]: 21 pg | MCHC [4]: 32.8% | MCV [4]: 64 fL | Mono [4]: 3.7% | Neu [4]: 17.3% | PT [4]: 15.2 s | Plat [4]: 115.4 x10_4/uL | RBC [4]: 616.3 x10_4/ul | Ret [4]: 8.6% | WBC [4]: 115.5 x10_2/uL | KIDNEY_L [4]: 0.9 g | KIDNEY_R [4]: 0.9 g | KIDNEY_TOTAL [4]: 1.8 g | LIVER [4]: 9.7 g | ALP [4]: 1572.7 IU/L | ALT [4]: 48.3 IU/L | AST [4]: 78 IU/L | BUN [4]: 15 mg/dL | CRE [4]: 0.2 mg/dL | DBIL [4]: 0.01 mg/dL | GLC [4]: 170.7 mg/dL | IP [4]: 8.6 mg/dL | K [4]: 4.4 meq/L | LDH [4]: 86.7 IU/L | PL [4]: 171.3 mg/dL | RALB [4]: 2.6 g/dL | TBIL [4]: 0.0533 mg/dL | TC [4]: 98.7 mg/dL | TG [4]: 55.3 mg/dL | TP [4]: 5.7 g/dL | gamma-GTP [4]: 1 IU/L | TERMINAL_BW [5]: 192 g | Bas [5]: 0% | Eos [5]: 0% | Fbg [5]: 249 mg/dL | Hb [5]: 12.9 g/dL | Lym [5]: 66% | MCH [5]: 21 pg | MCHC [5]: 32.9% | MCV [5]: 63.9 fL | Mono [5]: 2.3% | Neu [5]: 30.3% | PT [5]: 15.6 s | Plat [5]: 106.2 x10_4/uL | RBC [5]: 614.3 x10_4/ul | Ret [5]: 9.4% | WBC [5]: 59.5 x10_2/uL | KIDNEY_L [5]: 0.9 g | KIDNEY_R [5]: 0.9 g | KIDNEY_TOTAL [5]: 1.8 g | LIVER [5]: 8.5 g | ALP [5]: 1371 IU/L | ALT [5]: 39.3 IU/L | AST [5]: 80.7 IU/L | BUN [5]: 9.3 mg/dL | CRE [5]: 0.2 mg/dL | DBIL [5]: 0.0033 mg/dL | GLC [5]: 151.7 mg/dL | IP [5]: 9.1 mg/dL | K [5]: 3.9 meq/L | LDH [5]: 87.7 IU/L | PL [5]: 141.3 mg/dL | RALB [5]: 2.4 g/dL | TBIL [5]: 0.0433 mg/dL | TC [5]: 75.3 mg/dL | TG [5]: 50.7 mg/dL | TP [5]: 5.2 g/dL | gamma-GTP [5]: 0.7 IU/L | TERMINAL_BW [6]: 188.9 g | APTT [6]: 20.9 s | Bas [6]: 0% | Eos [6]: 1% | Fbg [6]: 308 mg/dL | Ht [6]: 40.2% | Lym [6]: 27% | MCH [6]: 21 pg | MCV [6]: 63.3 fL | Mono [6]: 1% | Neu [6]: 71% | Plat [6]: 84.5 x10_4/uL | RBC [6]: 634.3 x10_4/ul | Ret [6]: 7.8% | WBC [6]: 67.1 x10_2/uL | KIDNEY_L [6]: 0.9 g | KIDNEY_R [6]: 0.9 g | KIDNEY_TOTAL [6]: 1.7 g | LIVER [6]: 7.6 g | ALP [6]: 1287.3 IU/L | ALT [6]: 58.7 IU/L | AST [6]: 96.7 IU/L | BUN [6]: 8.3 mg/dL | CRE [6]: 0.2 mg/dL | Ca [6]: 9.9 mg/dL | DBIL [6]: 0.0167 mg/dL | GLC [6]: 150.7 mg/dL | IP [6]: 9.5 mg/dL | K [6]: 3.9 meq/L | LDH [6]: 75.3 IU/L | Na [6]: 139.7 meq/L | PL [6]: 154.3 mg/dL | RALB [6]: 2.5 g/dL | TBIL [6]: 0.0667 mg/dL | TC [6]: 91.7 mg/dL | TG [6]: 27.3 mg/dL | TP [6]: 5.4 g/dL | gamma-GTP [6]: 1.7 IU/L | TERMINAL_BW [7]: 187.9 g | APTT [7]: 16.6 s | Bas [7]: 0% | Eos [7]: 0% | Fbg [7]: 373 mg/dL | Ht [7]: 40.9% | Lym [7]: 58.3% | MCHC [7]: 33% | MCV [7]: 64.5 fL | Mono [7]: 2% | Neu [7]: 38.7% | PT [7]: 16 s | Plat [7]: 105.1 x10_4/uL | RBC [7]: 633.7 x10_4/ul | Ret [7]: 8.7% | WBC [7]: 86.6 x10_2/uL | KIDNEY_L [7]: 0.9 g | KIDNEY_R [7]: 0.8 g | KIDNEY_TOTAL [7]: 1.7 g | LIVER [7]: 7.1 g | ALP [7]: 1456.3 IU/L | ALT [7]: 37 IU/L | AST [7]: 77.3 IU/L | BUN [7]: 6.7 mg/dL | CRE [7]: 0.2 mg/dL | DBIL [7]: 0.0067 mg/dL | GLC [7]: 162.7 mg/dL | IP [7]: 9.8 mg/dL | K [7]: 3.6 meq/L | LDH [7]: 61 IU/L | Na [7]: 143.7 meq/L | PL [7]: 151 mg/dL | RALB [7]: 2.5 g/dL | TBIL [7]: 0.0567 mg/dL | TC [7]: 89 mg/dL | TG [7]: 21 mg/dL | TP [7]: 5.4 g/dL | gamma-GTP [7]: 1 IU/L | TERMINAL_BW [8]: 198.5 g | Bas [8]: 0% | Eos [8]: 1% | Fbg [8]: 435.3 mg/dL | Hb [8]: 13.6 g/dL | Lym [8]: 66.3% | MCH [8]: 21 pg | MCHC [8]: 32.7% | MCV [8]: 64.2 fL | Mono [8]: 2.3% | Neu [8]: 29% | PT [8]: 14.6 s | Plat [8]: 77.7 x10_4/uL | RBC [8]: 646.7 x10_4/ul | Ret [8]: 7.3% | WBC [8]: 85.5 x10_2/uL | KIDNEY_L [8]: 0.9 g | KIDNEY_R [8]: 0.9 g | KIDNEY_TOTAL [8]: 1.8 g | LIVER [8]: 9.1 g | ALP [8]: 2203 IU/L | ALT [8]: 39.3 IU/L | AST [8]: 71.7 IU/L | BUN [8]: 16.3 mg/dL | CRE [8]: 0.2 mg/dL | DBIL [8]: 0.01 mg/dL | GLC [8]: 189 mg/dL | IP [8]: 8.8 mg/dL | K [8]: 4.5 meq/L | LDH [8]: 77.3 IU/L | PL [8]: 168 mg/dL | RALB [8]: 2.6 g/dL | TBIL [8]: 0.0633 mg/dL | TC [8]: 94.7 mg/dL | TG [8]: 52.3 mg/dL | TP [8]: 5.6 g/dL | gamma-GTP [8]: 1 IU/L | TERMINAL_BW (0.3 mg/kg, 3 h, dose 300 ug/Kg, dose level Middle): 194.5 g
